Source: patent US7605154B2, “Substituted Thiazolo [4,5-d]pyrimidines as protein kinase inhibitors” (Janssen Pharmaceutica N.V., priority 2005, dated 2009)

Biological target: T1, EGFR (Homo sapiens, UniProt P00533)
T1 construct: started at nucleotide 2189 (corresponding to amino acid 667) and ended at the termination codon; made in house; host or cells: Sf9 insect cells (baculovirus)
Assay: EGFR Kinase Assay
Type: biochemical
Details: for IC50: GST-EGFR, 5 μM ATP
Text: The portion was PCR amplified with primers that added the lambda attB sequences to each end, recombined into an entry vector, then into a, GST destination vector (as described in Gateway Technologies Manual by Invitrogen Corporation, Carlsbad, Calif.).
The destination vector was recombined in the DH10BAC strain of bacteria to produce a bacmid. The bacmid was transfected into Sf 9 cells and the supernatant containing the baculovirus was collected. The GSTEGFR protein was purified using large cultures of Sf 9 cells infected with stock virus. After an appropriate period of time, the cells were collected and lysed. The GSTEGFR was then purified from the lysate on Glutathione-Sepharose columns (as described by Amersham Biosciences, Buckinghamshire, United Kingdom).
The free biotin was separated from the biotinylated polyGluTyr on a gel filtration column.
A mixture of a 10× kinase buffer (500 mM Tris at pH 8.0, 100 mM Magnesium Chloride and 1 mM Sodium Vanadate), DTT (1 mM final from 500 mM stock), ATP (5 μM final from 10 mM stock), biotinylated polyGluTyr (10 μg/μL stock), γ-^33P ATP (10 μCi/μL stock) and water was added to each well (90 μL/well) of a Streptavidin Flashplate (Perkin Elmer, Wellesley, Mass.).
Test compound in 100% DMSO (2 μL) was added to the appropriate wells. Diluted GSTEGFR (1:300 dilution in 50 mM Tris at pH 8.0 and 0.1% bovine serum albumin) (10 μL) was added to the wells to initiate the reactions.
The plates were incubated at 30° C. for 1 hr with shaking. The reacted contents were removed and the plates were sequentially washed three times with a 1×PBS stop buffer (300 μL without Magnesium and Calcium) and 100 mM EDTA. After the final wash, the same stop buffer (200 μL) was added to the wells. The plates were then sealed and read on the TopCount scintillation counter.
Test compounds were assayed in triplicate at 16 concentrations at half-log dilutions starting at 200 uM. A maximum and minimum signal for the assay was determined on each plate. The percent inhibition of a test compound was calculated according to the formula
For a series of test concentrations, the IC50 was derived by graphing percent inhibition against the log of the concentrations tested for a given compound.

T1 sequence (P00533 667-1210 limits assumed): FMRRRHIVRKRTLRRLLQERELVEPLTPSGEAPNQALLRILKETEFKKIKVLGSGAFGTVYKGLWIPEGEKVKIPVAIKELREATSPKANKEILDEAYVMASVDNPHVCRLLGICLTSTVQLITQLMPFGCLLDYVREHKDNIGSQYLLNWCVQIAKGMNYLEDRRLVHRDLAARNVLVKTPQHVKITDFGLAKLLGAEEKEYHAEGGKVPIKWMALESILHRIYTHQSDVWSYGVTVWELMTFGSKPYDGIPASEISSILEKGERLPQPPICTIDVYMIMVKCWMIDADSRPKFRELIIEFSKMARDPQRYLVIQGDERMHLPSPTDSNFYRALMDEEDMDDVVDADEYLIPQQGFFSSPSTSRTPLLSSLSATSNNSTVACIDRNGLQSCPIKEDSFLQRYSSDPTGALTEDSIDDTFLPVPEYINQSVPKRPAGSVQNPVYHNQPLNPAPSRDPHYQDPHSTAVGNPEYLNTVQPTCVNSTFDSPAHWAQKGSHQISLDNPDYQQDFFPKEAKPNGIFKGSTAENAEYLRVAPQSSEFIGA

| IC50 [nM] | inhibition at 2 µM (test concentration of 2 μM, compounds without an IC50, read-out: EGFR percent inhibition) [%] | SMILES |
| --- | --- | --- |
| 7 | – | Clc1cccc(Nc2ncnc3nc(Nc4ccc(CN5CCOCC5)cc4)sc23)c1 [Cpd 57, N^7-(3-chloro-phenyl)-N^2-(4-morpholin-4-ylmethyl-phenyl)-thiazolo[4,5-d]pyrimidine-2,7-diamine] |
| 6.5 | – | C#Cc1cccc(Nc2ncnc3nc(Nc4ccc(S(=O)(=O)NCCO)cc4)sc23)c1 [Cpd 58, 4-[7-(3-ethynyl-phenylamino)-thiazolo[4,5-d]pyrimidin-2-ylamino]-N-(2-hydroxy-ethyl)-benzenesulfonamide] |
| 27.5 | – | C#Cc1cccc(Nc2ncnc3nc(Nc4ccc(CN(CC(C)O)CC(C)O)cc4)sc23)c1 (stereo not drawn) [Cpd 61, 1-[{4-[7-(3-ethynyl-phenylamino)-thiazolo[4,5-d]pyrimidin-2-ylamino]-benzyl}-(2-hydroxy-propyl)-amino]-propan-2-ol] |
| 10.7 | – | C#Cc1cccc(Nc2ncnc3nc(Nc4ccc(CN(C)C5CCOCC5)cc4)sc23)c1 [Cpd 63] |
| 43.4 | – | O=[N+]([O-])c1cc(Nc2ncnc3nc(Nc4ccc(CN5CCOCC5)cc4)sc23)ccc1F [Cpd 65, N^7-(4-fluoro-3-nitro-phenyl)-N^2-(4-morpholin-4-ylmethyl-phenyl)-thiazolo[4,5-d]pyrimidine-2,7-diamine] |
| 3.7 | – | Fc1ccc(Nc2ncnc3nc(Nc4ccc(CNC[C@H]5CCCO5)cc4)sc23)cc1Cl [Cpd 67, N^7-(3-chloro-4-fluoro-phenyl)-N^2-(4-{[(2R)-(tetrahydro-furan-2-ylmethyl)-amino]-methyl}-phenyl)-thiazolo[4,5-d]pyrimidine-2,7-diamine] |
| 28.6 | – | C#Cc1cccc(Nc2ncnc3nc(Nc4ccc(OC)nc4)sc23)c1 [Cpd 69, N^7-(3-ethynyl-phenyl)-N^2-(6-methoxy-pyridin-3-yl)-thiazolo[4,5-d]pyrinidine-2,7-diamine] |
| 28.2 | – | C#Cc1cccc(Nc2ncnc3nc(Nc4ccc(NCCCN5CCOCC5)nc4)sc23)c1 [Cpd 72, N^7-(3-ethynyl-phenyl)-N^2-[6-(3-morpholin-4-yl-propylamino)-pyridin-3-yl]-thiazolo[4,5-d]pyrimidine-2,7-diamine] |
| 82.5 | – | NS(=O)(=O)c1ccc(Nc2nc3ncnc(Nc4ccccc4)c3s2)cc1 [Cpd 80, 4-[7-(phenylamino)-thiazolo[4,5-d]pyrimidin-2-ylamino]-benzenesulfonamide] |
| 3800 | – | NS(=O)(=O)c1ccc(Nc2nc3ncnc(Nc4ccc(N5CCOCC5)c(Cl)c4)c3s2)cc1 [Cpd 83, 4-[7-(3-chloro-4-(morpholin-4-yl)-phenylamino)-thiazolo[4,5-d]pyrimidin-2-ylamino]-benzenesulfonamide] |
| 59.3 | – | Fc1ccc(Nc2ncnc3nc(Nc4ccccc4)sc23)cc1Cl [Cpd 88, N^7-(3-chloro-4-fluoro-phenyl)-N^2-phenyl-thiazolo[4,5-d]pyrimidine-2,7-diamine] |
| 27.1 | – | Clc1cccc(Nc2ncnc3nc(Nc4ccccc4)sc23)c1 [Cpd 89, N^7-(3-chloro-phenyl)-N^2-phenyl-thiazolo[4,5-d]pyrirnidine-2,7-diamine] |
| 16.5 | – | Brc1cccc(Nc2ncnc3nc(Nc4ccccc4)sc23)c1 [Cpd 90, N^7-(3-bromo-phenyl)-N^2-phenyl-thiazolo[4,5-d]pyrimidine-2,7-diamine] |
| 733 | – | Clc1cc(Cl)cc(Nc2ncnc3nc(Nc4ccccc4)sc23)c1 [Cpd 91, N^7-(3,5-dichloro-phenyl)-N^2-phenyl-thiazolo[4,5-d]pyrimidine-2,7-diamine] |
| 15.4 | – | N#Cc1ccc(Nc2nc3ncnc(Nc4ccc(F)c(Cl)c4)c3s2)cc1 [Cpd 92, 4-[7-(3-chloro-4-fluoro-phenylamino)-thiazolo[4,5-d]pyrimidin-2-ylamino]-benzonitrile] |
| 25.5 | – | N#Cc1ccc(Nc2nc3ncnc(Nc4cccc(Cl)c4)c3s2)cc1 [Cpd 93, 4-[7-(3-chloro-phenylamino)-thiazolo[4,5-d]pyrimidin-2-ylamino]-benzonitrile] |

More lines, now with the values behind:

| SMILES | IC50 [nM] | inhibition at 2 µM (test concentration of 2 μM, compounds without an IC50, read-out: EGFR percent inhibition) [%] |
| --- | --- | --- |
| CN(Cc1ccc(Nc2nc3ncnc(Nc4ccc(F)c(Cl)c4)c3s2)cc1)C[C@H]1CCCO1 [Cpd 59, N^7-(3-chloro-4-fluoro-phenyl)-N^2-(4-{[methyl-(2R)-(tetrahydro-furan-2-ylmethyl)-amino]-methyl}-phenyl)-thiazolo[4,5-d]pyrimidine-2,7-diamine] | 11 | – |
| CN(Cc1ccc(Nc2nc3ncnc(Nc4ccc(F)c(Cl)c4)c3s2)cc1)C[C@@H]1CCCO1 [Cpd 60, N^7-(3-chloro-4-fluoro-phenyl)-N^2-(4-{[methyl-(2S)-(tetrahydro-furan-2-ylmethyl)-amino]-methyl}-phenyl)-thiazolo[4,5-d]pyrimidine-2,7-diamine] | 23.9 | – |
| C#Cc1cccc(Nc2ncnc3nc(Nc4ccc(CNCC5COC(C)(C)O5)cc4)sc23)c1 (stereo not drawn) [Cpd 62, N^2-(4-{[(2,2-dimethyl-[1,3]dioxolan-4-ylmethyl)-amino]-methyl}-phenyl)-N^7-(3-ethynyl-phenyl)-thiazolo[4,5-d]pyrimidine-2,7-diamine] | 6.95 | – |
| COc1ccc(Nc2nc3ncnc(Nc4ccc(F)c(Cl)c4)c3s2)cn1 [Cpd 70, N^7-(3-chloro-4-fluoro-phenyl)-N^2-(6-methoxy-pyridin-3-yl)-thiazolo[4,5-d]pyrimidine-2,7-diamnine] | 19.6 | – |
| Nc1ccc(Nc2nc3ncnc(Nc4ccc(F)c(Cl)c4)c3s2)cn1 [Cpd 71, N^2-(6-amino-pyridin-3-yl)-N^7-(3-chloro-4-fluoro-phenyl)-thiazolo[4,5-d]pyrimidine-2,7-diamine] | 44 | – |
| NS(=O)(=O)c1ccc(Nc2nc3ncnc(Nc4cccc(Cl)c4)c3s2)cc1 [Cpd 74, 4-[7-(3-chloro-phenylamino)-thiazolo[4,5-d]pyrimidin-2-ylamno]-benzenesulfonamide] | 6.6 | – |
| NS(=O)(=O)c1ccc(Nc2nc3ncnc(Nc4c(F)cccc4F)c3s2)cc1 [Cpd 75, 4-[7-(2,6-difluoro-phenylamino)-thiazolo[4,5-d]pyrimidin-2-ylamino]-benzenesulfonamide] | 187 | – |
| NS(=O)(=O)c1ccc(Nc2nc3ncnc(Nc4ccc(Cl)cc4F)c3s2)cc1 [Cpd 76, 4-[7-(4-chloro-2-fluoro-phenylamino)-thiazolo[4,5-d]pyrimidin-2-ylamino]-benzenesulfonamide] | 40.2 | – |
| NS(=O)(=O)c1ccc(Nc2nc3ncnc(Nc4ccc(Br)cc4F)c3s2)cc1 [Cpd 77, 4-[7-(4-bromo-2-fluoro-phenylamino)-thiazolo[4,5-d]pyrimidin-2-ylamino]-benzenesulfonamide] | 87 | – |
| NS(=O)(=O)c1ccc(Nc2nc3ncnc(Nc4cccc(Br)c4)c3s2)cc1 [Cpd 78, 4-[7-(3-bromo-phenylamino)-thiazolo[4,5-d]pyrimidin-2-ylamino]-benzenesulfonamide] | 10.5 | – |
| Cc1cccc(Nc2ncnc3nc(Nc4ccc(S(N)(=O)=O)cc4)sc23)c1 [Cpd 79, 4-[7-(3-methyl-phenylamino)-thiazolo[4,5-d]pyrimidin-2-ylamino]-benzenesulfonamide] | 14.3 | – |
| NS(=O)(=O)c1ccc(Nc2nc3ncnc(Nc4cc(Cl)cc(Cl)c4)c3s2)cc1 [Cpd 81, 4-[7-(3,5-dichloro-phenylamino)-thiazolo[4,5-d]pyrimidin-2-ylamino]-benzenesulfonamide] | 116 | – |
| NS(=O)(=O)c1ccc(Nc2nc3ncnc(Nc4ccc(Br)c(Cl)c4)c3s2)cc1 [Cpd 82, 4-[7-(4-bromo-3-chloro-phenylamino)-thiazolo[4,5-d]pyrimidin-2-ylamino]-benzenesulfonamide] | 5 | – |
| NS(=O)(=O)c1ccc(Nc2nc3ncnc(Nc4cccc(CN5CCOCC5)c4)c3s2)cc1 [Cpd 84, 4-[7-(3-(morpholin-4-yl)methyl-phenylamino)-thiazolo[4,5-d]pyrimidin-2-ylamino]-benzenesulfonamide] | 3300 | – |
| NS(=O)(=O)c1ccc(Nc2nc3ncnc(Nc4ccc(CCN5CCOCC5)cc4)c3s2)cc1 [Cpd 85, 4-[7-(4-(morpholin-4-yl)ethyl-phenylamino)-thiazolo[4,5-d]pyrimidin-2-ylamino]-benzenesulfonamide] | 10100 | – |
| NS(=O)(=O)c1ccc(Nc2nc3ncnc(Nc4ccc(N5CCOCC5)cc4)c3s2)cc1 [Cpd 86, 4-[7-(4-(morpholin-4-yl)-phenylamino)-thiazolo[4,5-d]pyrimidin-2-ylamino]-benzenesulfonamide] | 17900 | – |
| COc1ccc(Nc2ncnc3nc(Nc4ccc(S(N)(=O)=O)cc4)sc23)cc1CN1CCOCC1 [Cpd 87, 4-[7-(4-methoxy-3-(morpholin-4-yl)methyl-phenylamino)-thiazolo[4,5-d]pyrimidin-2-ylamino]-benzenesulfonamide] | – | 13 |
